Experimental data as given in patent publication US7250394B2, “Treatment of glial tumors with glutamate antagonists” (priority 2001, dated 2007).

Key:
C6 glioma cells = test: [3H]glutamate uptake in C6 subclones; assay type: cell-based, rat; details: 5 min
Description: Glutamate uptake was analyzed by mixing 0.4 μCi/ml L-[^3H]glutamate (specific activity 0.03 Ci/mmol) with 150 μM glutamate in a buffer containing […] NaCl, 1.5 mM K2HPO4, 2 MM MgCl2, 2 mM CaCl2, 10 mM HEPES and 10 mM glucose with pH 7.3 (ref 6). NaCl was replaced by choline chloride for sodium-free conditions. Cells were washed twice, then incubated in the uptake solution with various blockers for 5 min., followed by 3 washes with ice-cold buffer, and then dissolved in 0.3 N NaOH. The activity of [^3H]glutamate was detected with liquid scintillation counter (1209 Rackbeta, LKB Wallac, San Francisco, Calif.). Protein concentration was determined by using the DC protein assay kit from BioRad.

C6 cells [1] = test: Glutamate release from C6 subclones (bioluminescence assay); assay type: cell-based, rat
Description: Confluent cultures were washed twice and incubated in fresh culture medium. Samples of the supernatant were collected at 1, 3 and 6 hours. […] Glutamate release from freshly prepared brain slices was imaged by preparing 300-μm slices by vibratome 5 days after tumor implantation. The sections were prepared in artificial CSF as described (Kang et al., “Astrocyte-Mediated Potentiation of Inhibitory Synaptic Transmission,”Nature Neurosci., 1:683–692 (1998), which is hereby incorporated in its entirety). After 15 to 30 min. incubation in CSF, the slices were transferred to microscope stage and immersed in the bioluminescence mixture (1 ml) at room temperature. To modify the bioluminescence mixture to be tolerated by live tissue, glycerol was removed using Hank's buffered salt solution as the base. The luminescence was imaged by an intensified CCD camera (Hamamatsu, C2400) attached to a BX-50 microscope with a 50 mm camera lens (Olympus). The relative light production over the tumor versus normal brain tissue was quantified. Light emission higher than a background threshold was superimposed upon a bright-field image of the same section obtained immediately after luminescence recordings. The brain slices were fixed overnight in 4% paraformaldehyde and stained with cresylviolet.

[2] = test system: cultured cortical neurons; test: Calcium measurement (fluo-3) in cortical neurons after conditioned medium from C6Glu+ cells; assay type: cell-based, rat; details: 10 μM
Description: (§1) Ten-day-old cortical neurons were loaded with the calcium indicator, fluo-3 AM (5 μM, 1 h), and the fluorescence signal was detected by confocal microscopy (MRC1000, BioRad, Richmond, Calif.) as described (Lin et al., “Ga-Junction-Mediated Propagation and Amplification of Cell Injury,” Nature Neurosci., 1:494–500 (1998); Zhang et al., “Tamoxifen-Induced Enhancement of Calcium Signaling in Glioma and MCF-7 Breast Cancer Cells,” Cancer Res., 60:5395–5400 (2000), which are hereby incorporated in their entirety). 100 μl conditioned medium from the C6 clones was added to the culture (initial media volume was 300 μl). Proliferation of the C6 subclones was determined by cell counting or by the Alamar blue assay (Biosource, Camarillo, Calif.) and cellular invasiveness evaluated using Matrigel-coated transwell inserts as described (Zhang et al., “Direct Gap Junction Communication Between Malignant Glioma Cells and Astrocytes,” Cancer Res., 59:1994–2003 (1999), which is hereby incorporated in its entirety).
After transfer of conditioned medium from C6Glu^+ cells to cultured cortical neurons that had been first loaded with the calcium indicator fluo-3, there was a rapid increase in the relative emission of fluo-3, indicating increased cytosolic calcium levels (FIG. 1B). […]

C6Glu^+ cell implants = test: C6Glu+ glioma implantation in striata of Wistar rats, tumor size 10 days after implantation; assay type: in vivo, rat
Description: Rats (male Wistar, 250–270 g) anesthetized with pentobarbital (50 mg/kg) were placed in a stereotactic frame and 1×10^4 C6 cells were injected at a depth of 6 mm in the right striata with a Hamilton syringe. Injection coordinates with regard to bregma were 0.5 mm posterior and 3.0 mm lateral. Fischer rats (170–200 g) were injected with 1×10^4 RG2 cells. In some experiments, the glioma cells were prelabeled with the cell tracker, CMFDA (2 μM, Molecular Probes, Eugene, Oreg.) (Lin et al., “Ga-Junction-Mediated Propagation and Amplification of Cell Injury,” Nature Neurosci., 1:494–500 (1998), which is hereby incorporated in its entirety). Ten days after implantation, the anesthetized rats were perfused with 4% paraformaldehyde in phosphate buffer. After post-fixation for 24 hours, the brains were sectioned into 50–500-μm slices by a vibratome (Kang et al., “AstrocyteMediated Potentiation of Inhibitory Synaptic Transmission,” Nature Neurosci., 1:682–692 (1998), which is hereby incorporated in its entirety). The slices were imaged using a Sony digital camera (DSC-S50) and tumor volume calculated using NIH Image software.
Based upon the above observations, it was investigated whether excitotoxic neuronal death accelerates tumor expansion. […]

cortical neurons = test: Coculture of cortical neurons with C6Glu+ glioma aggregates, neuronal viability; assay type: cell-based, rat; details: pretreatment; 24 h coculture (10 μM per FIG. 1C)
Description: Glioma cell aggregates were produced by plating 100,000 C6Glu^+ or C6Glu^−cells in plates with non-adhesive substrate (ultra low cluster 3473; Costar, Cambridge, Mass.). Twenty-four hours later, the glioma aggregates were loaded with calcein AM (green, 2 μM, excitation 488 nm) and transferred to neuronal cultures. Cortical neuronal cultures were preloaded with the cell tracker Sytox 62 (white, 0.1 μM, excitation 647 nm).
To study the direct cellular interactions, the glioma clones were cocultured with cortical neurons (Id.). Twenty-four hours after adding aggregates of C6Glu^− cells to established neuronal cultures, 86±2% of the neurons remained viable (FIGS. 1C–D). In comparison, only 14±1% of neurons survived in sister cultures after addition of C6Glu^+ cell aggregates (FIGS. 1C–D).

[3] = test system: TUNEL^+ neurons surrounding C6Glu^+ cell tumors; test: TUNEL staining of degenerating neurons surrounding C6Glu+ tumors; assay type: in vivo, rat; details: five-day-old tumors; P<0.001 one-way ANOVA
Text: Polyclonal antibodies against glutamate transporters were supplied by and used as described by Rothstein et al., “Localization of Neuronal and Glial Glutamate Transporters,” Neuron, 13:713–725 (1994), which is hereby incorporated in its entirety. Neuronal death was visualized with the TUNEL technique (Oncor, Gaithersburg), and counterstained with hematoxilin and eosin (H&E) (Lin et al., “Ga-Junction-Mediated Propagation and Amplification of Cell Injury,” Nature Neurosci., 1, 494–500 (1998), which is hereby incorporated in its entirety). […] TUNEL^+ neurons within a distance of 200 μm from the tumor border were counted by a blinded observer. […]
To test the possibility that elevation of extracellular glutamate triggers excitotoxic neuronal death in normal brain tissue invaded by C6Glu^+ tumor cells, TUNEL (terminal deoxynucleotidyl-transferase-mediated dUTP-blotin nick end-labeling) staining was used to identify degenerating neurons (Lin et al., “Ga-Junction-Mediated Propagation and Amplification of Cell Injury,” Nature Neurosci., 1, 494–500 (1998), which is hereby incorporated in its entirety). Five-day-old tumors were evaluated to minimize indirect injury resulting from the very large tumors in animals with C6Glu^+ cell implants. […]

C6 cells [4] = test: Proliferation of C6 glioma cells in culture; assay type: cell-based, rat
Description: as §1

[5] = 25 mg/kg i.p.; microdialysis; cited from earlier work
RG2 glioma cells = test: Proliferation of RG2 glioma cells in culture; assay type: cell-based, rat
[6] = patients with Parkinson's Disease, dementia, and spasticity; cited from earlier work
RG2Glu^+ cell implants = test: RG2Glu+ glioma implantation in Fischer rats, tumor volume; assay type: in vivo, rat; details: 25 mg/kg twice daily i.p., 10 d
Description: Rats (male Wistar, 250–270 g) anesthetized with pentobarbital (50 mg/kg) were placed in a stereotactic frame and 1×10^4 C6 cells were injected at a depth of 6 mm in the right striata with a Hamilton syringe. Injection coordinates with regard to bregma were 0.5 mm posterior and 3.0 mm lateral. Fischer rats (170–200 g) were injected with 1×10^4 RG2 cells. In some experiments, the glioma cells were prelabeled with the cell tracker, CMFDA (2 μM, Molecular Probes, Eugene, Oreg.) (Lin et al., “Ga-Junction-Mediated Propagation and Amplification of Cell Injury,” Nature Neurosci., 1:494–500 (1998), which is hereby incorporated in its entirety). Ten days after implantation, the anesthetized rats were perfused with 4% paraformaldehyde in phosphate buffer. After post-fixation for 24 hours, the brains were sectioned into 50–500-μm slices by a vibratome (Kang et al., “AstrocyteMediated Potentiation of Inhibitory Synaptic Transmission,” Nature Neurosci., 1:682–692 (1998), which is hereby incorporated in its entirety). The slices were imaged using a Sony digital camera (DSC-S50) and tumor volume calculated using NIH Image software. […]

In the case of `O=C(O)[C@@H]1CN[C@@H](C(=O)O)C1` (relative stereo) [trans-PDC, trans-pyrrolidine-2,4-dicarboxylate], the “uptake of [3H]glutamate in C6Glu+ cells” value (C6 glioma cells; 200 μM) is reported as “not affected”, the “[3H]glutamate uptake in C6Glu- cells” value (C6 glioma cells) is reported as “significantly reduced” and the “[3H]glutamate uptake in C6WT cells” value (C6 glioma cells) is reported as “significantly reduced”. For the same molecule, the “glutamate release from C6 cells” value (C6 cells [1]; 6-h period) was “not affected”.
In the case of `C[C@]12N[C@H](Cc3ccccc31)c1ccccc12` [MK801, dizocilpine], the “increase in fluo-3 emission (cytosolic calcium) in cortical neurons” value [2] is reported as “blocked”, the tumor size (C6Glu^+ cell implants; 1 mg/kg twice daily i.p., 10 days after injection of C6Glu+ cells, vehicle 106±19 mm^3, P<0.001) is reported as 54.9±11 mm^3 and the “neuronal loss in coculture with C6Glu+ cell aggregates” value (cortical neurons) is reported as “attenuated the neuronal loss”. For the same molecule, the “number of TUNEL+ neurons surrounding C6Glu+ cell tumors” value [3] was “reduced” and the “proliferation rate of C6 cells in vitro” value (C6 cells [4]; 10 or 100 μM per FIG. 4B) was “did not reduce”.
With `N[C@H](C(=O)O)c1ccc(C(=O)O)cc1` [S-4CPG, (s)-4-carboxyphenylglycine] the “glutamate release from C6 cells” value (C6 cells [1]; 100 μM, any of the three clones) was “no effect”.
In the case of `N[C@@H](CSSC[C@H](N)C(=O)O)C(=O)O` [cystine], the “glutamate release from C6 cells” value (C6 cells [1]; addition of extracellular cystine, any of the three clones) is reported as “no effect”.
For `CC12CC3CC(C)(C1)CC(N)(C3)C2` [memantine], the “growth of C6Glu+ tumors” value (C6Glu^+ cell implants; 10 d after implantation, P<0.001 (FIG. 6D)) is listed as “effectively restricted the growth”, the “peak concentrations in the central nervous system” value [5] is listed as 1 to 2 µM and the “proliferation of cultured C6Glu+ cells” value (C6 cells [4]; 100 μM or higher) is listed as “significant reduction”. For the same molecule, the “proliferation of cultured C6Glu+ cells” value (C6 cells [4]; low concentrations) was “did not reduce”, the “proliferation of RG2 glioma cells” value (RG2 glioma cells; 100 μM or higher) was “significant reduction” and the “proliferation of RG2 glioma cells” value (RG2 glioma cells; low concentrations) was “did not reduce”. The “side effects on prolonged administration” value [6] was “few side effects” and the “tumor volume smaller than vehicle-treated rats” value (RG2Glu^+ cell implants) was 26%.
